Data: patent US20210047304A1, “Bromodomain Inhibitors” (AbbVie Inc., priority 2016, published 2021)

Target: BRD4 (BDI_K57-E168) (Homo sapiens, UniProt O60885)
Assay: TR-FRET bromodomain binding assay, BRD4 BDI
Protocol: A time-resolved fluorescence resonance energy transfer (TR-FRET) assay was used to determine the affinities of compounds of the Examples listed in Table 1 for each bromodomain of BRD4. […] An Alexa647-labeled BET-inhibitor was used as the fluorescent probe in the assay.
(§1) Compound dilution series were prepared in DMSO via an approximately 3-fold serial dilution. Compound dilutions were added directly into white, low-volume assay plates (Perkin Elmer Proxiplate 384 Plus #6008280) using a Labcyte Echo in conjunction with Labcyte Access and Thermo Multidrop CombinL robotics. Compounds were then suspended in eight microliters (μL) of assay buffer (20 mM Sodium Phosphate, pH 6.0, 50 mM NaCl, 1 mM Ethylenediaminetetraacetic acid disodium salt dihydrate, 0.01% Triton X-100, 1 mM DL-Dithiothreitol) containing His-tagged bromodomain, Europium-conjugated anti-His antibody (Invitrogen PV5596) and Alexa-647-conjugated probe.
After a one-hour equilibration at room temperature, TR-FRET ratios were determined using an Envision multilabel plate reader (Ex 340, Em 495/520).
TR-FRET data were normalized to the means of 24 no-compound controls (“high”) and 8 controls containing 1 μM un-labeled probe (“low”). Percent inhibition was plotted as a function of compound concentration and the data were fit with the 4 parameter logistic equation to obtain IC50s. Inhibition constants (Ki) were calculated from the IC50s, probe Kd and probe concentration.
Compound dilution series for Compounds A-E were prepared in DMSO via an approximately 3-fold serial dilution from 0.47 mM to 7.8 nM.
as §1, with “Compound” for “Compound dilution series were prepared in DMSO via an approximately 3-fold serial dilution. Compound”
TR-FRET data were normalized to the means of 24 no-compound controls (“high”) and 8 controls containing 1 μM un-labeled probe (“low”). Percent inhibition was plotted as a function of compound concentration and the data were fit with the 4 parameter logistic equation to obtain IC50s. Inhibition constants (Ki) were calculated from the IC50s, probe Kd and probe concentration. Typical Z′ values were between 0.65 and 0.75. The minimum significant ratio was determined to evaluate assay reproducibility (Eastwood et al., (2006) J Biomol Screen, 11: 253-261). The MSR was determined to be 2.03 for BDI and 1.93 for BDII, and a moving MSR (last six run MSR overtime) for both BDI and BDII was typically <3.

Ki [nM]	SMILES
1670	Cc1cc(F)cc(C)c1Oc1ccc(C(C)(C)O)cc1-c1cn(C)c(=O)cc1O[C@H]1CC[C@H](N2C(=O)C(C)(C)N(C)C2C)CC1 (relative stereo) [Example 134, 5-[2-(4-fluoro-2,6-dimethylphenoxy)-5-(2-hydroxypropan-2-yl)phenyl]-1-methyl-4-{[trans-4-(2,3,4,4-tetramethyl-5-oxoimidazolidin-1-yl)cyclohexyl]oxy}pyridin-2(1H)-one]
3410	Cc1cc(F)cc(C)c1Oc1ccc(C(C)(C)O)cc1-c1cn(C)c(=O)cc1O[C@H]1CC[C@H](NNC(=O)OC(C)(C)C)CC1 [Example 106, tert-butyl 2-[trans-4-({5-[2-(4-fluoro-2,6-dimethylphenoxy)-5-(2-hydroxypropan-2-yl)phenyl]-1-methyl-2-oxo-1,2-dihydropyridin-4-yl}oxy)cyclohexyl]hydrazine-1-carboxylate]
1710	CC(=O)N[C@H]1CC[C@H](Oc2cc(=O)n(C)cc2-c2cc(C(C)(C)O)cnc2Oc2c(C)cc(F)cc2C)CC1 [Example 1, N-(trans-4-{[2′-(4-fluoro-2,6-dimethylphenoxy)-5′-(2-hydroxypropan-2-yl)-1-methyl-6-oxo[1,6-dihydro[3,3′-bipyridine]]-4-yl]oxy}cyclohexyl)acetamide]
2530	Cc1cc(F)cc(C)c1Oc1ccc(C(C)(C)O)cc1-c1cn(C)c(=O)cc1O[C@H]1CC[C@H](NC(=O)C(C)(C)CCCO)CC1 [Example 79, N-[trans-4-({5-[2-(4-fluoro-2,6-dimethylphenoxy)-5-(2-hydroxypropan-2-yl)phenyl]-1-methyl-2-oxo-1,2-dihydropyridin-4-yl}oxy)cyclohexyl]-5-hydroxy-2,2-dimethylpentanamide]
1320	CCOC(=O)CN(C(=O)C1(C)CC1)[C@H]1CC[C@H](Oc2cc(=O)n(C)cc2-c2cc(C(C)(C)O)ccc2Oc2c(C)cc(F)cc2C)CC1 [Example 66, ethyl N-[trans-4-({5-[2-(4-fluoro-2,6-dimethylphenoxy)-5-(2-hydroxypropan-2-yl)phenyl]-1-methyl-2-oxo-1,2-dihydropyridin-4-yl}oxy)cyclohexyl]-N-(1-methylcyclopropane-1-carbonyl)glycinate]
1950	Cc1cc(F)cc(C)c1Oc1ccc(C(C)(C)O)cc1-c1cn(C)c(=O)cc1O[C@H]1CC[C@@H](C#N)CC1 [Example 68, cis-4-({5-[2-(4-fluoro-2,6-dimethylphenoxy)-5-(2-hydroxypropan-2-yl)phenyl]-1-methyl-2-oxo-1,2-dihydropyridin-4-yl}oxy)cyclohexane-1-carbonitrile]
5790	C=CCCCC(=O)N[C@H]1CC[C@H](Oc2cc(=O)n(C)cc2-c2cc(C(C)(C)O)ccc2Oc2c(C)cc(F)cc2C)CC1 [Example 36, N-[trans-4-({5-[2-(4-fluoro-2,6-dimethylphenoxy)-5-(2-hydroxypropan-2-yl)phenyl]-1-methyl-2-oxo-1,2-dihydropyridin-4-yl}oxy)cyclohexyl]hex-5-enamide]
1900	Cc1cccc(C)c1Oc1ccc(C(C)(C)O)cc1-c1cn(C)c(=O)cc1O[C@H]1CC[C@H](N2CCCC2=O)CC1 [Example 27, 5-[2-(2,6-dimethylphenoxy)-5-(2-hydroxypropan-2-yl)phenyl]-1-methyl-4-{[trans-4-(2-oxopyrrolidin-1-yl)cyclohexyl]oxy}pyridin-2(1H)-one]
> 13000	CC(=O)N[C@H]1CC[C@H](N(C)c2cc(=O)n(C)cc2-c2cc(C(C)(C)O)ccc2Oc2c(C)cc(F)cc2C)CC1 [Example 13, N-{trans-4-[{5-[2-(4-fluoro-2,6-dimethylphenoxy)-5-(2-hydroxypropan-2-yl)phenyl]-1-methyl-2-oxo-1,2-dihydropyridin-4-yl}(methyl)amino]cyclohexyl}acetamide]
> 13000	Cc1cc(F)cc(C)c1Oc1ccc(C(C)(C)O)cc1-c1cn(C)c(=O)cc1O[C@H]1CC[C@H](N2C(=O)N[C@@H](C)C2=O)CC1 [Example 124, (5S)-3-[trans-4-({5-[2-(4-fluoro-2,6-dimethylphenoxy)-5-(2-hydroxypropan-2-yl)phenyl]-1-methyl-2-oxo-1,2-dihydropyridin-4-yl}oxy)cyclohexyl]-5-methylimidazolidine-2,4-dione]
2890	CC(=O)N[C@H]1CC[C@H](Nc2cc(=O)n(C)cc2-c2cc(C(C)(C)O)ccc2Oc2c(C)cc(F)cc2C)CC1 [Example 19, N-[trans-4-({5-[2-(4-fluoro-2,6-dimethylphenoxy)-5-(2-hydroxypropan-2-yl)phenyl]-1-methyl-2-oxo-1,2-dihydropyridin-4-yl}amino)cyclohexyl]acetamide]
> 13000	Cc1cc(F)cc(C)c1Oc1ccc(C(C)(C)O)cc1-c1cn(C)c(=O)cc1O[C@H]1CC[C@H](n2cnccc2=O)CC1 [Example 144, 3-[trans-4-({5-[2-(4-fluoro-2,6-dimethylphenoxy)-5-(2-hydroxypropan-2-yl)phenyl]-1-methyl-2-oxo-1,2-dihydropyridin-4-yl}oxy)cyclohexyl]pyrimidin-4(3H)-one]
2430	Cc1cc(F)cc(C)c1Oc1ccc(C(C)(C)O)cc1-c1cn(C)c(=O)cc1O[C@H]1CC[C@H](NC(=O)C2(C)CC(=O)C2)CC1 [Example 87, N-[trans-4-({5-[2-(4-fluoro-2,6-dimethylphenoxy)-5-(2-hydroxypropan-2-yl)phenyl]-1-methyl-2-oxo-1,2-dihydropyridin-4-yl}oxy)cyclohexyl]-1-methyl-3-oxocyclobutane-1-carboxamide]
2870	CC(=O)NC[C@@H]1CC[C@H](Oc2cc(=O)n(C)cc2-c2cc(C(C)(C)O)ccc2Oc2c(C)cc(F)cc2C)[C@H]1C [Example 22, N-{[(1R,2S,3S)-3-({5-[2-(4-fluoro-2,6-dimethylphenoxy)-5-(2-hydroxypropan-2-yl)phenyl]-1-methyl-2-oxo-1,2-dihydropyridin-4-yl}oxy)-2-methylcyclopentyl]methyl}acetamide]
1790	Cc1cc(F)cc(C)c1Oc1ccc(C(C)(C)O)cc1-c1cn(C)c(=O)cc1O[C@H]1CC[C@@H](NNC(=O)OC(C)(C)C)CC1 [Example 107, tert-butyl 2-[cis-4-({5-[2-(4-fluoro-2,6-dimethylphenoxy)-5-(2-hydroxypropan-2-yl)phenyl]-1-methyl-2-oxo-1,2-dihydropyridin-4-yl}oxy)cyclohexyl]hydrazine-1-carboxylate]
5440	Cc1cc(F)cc(C)c1Oc1ccc(C(C)(C)O)cc1-c1cn(C)c(=O)cc1O[C@H]1CC[C@H](C(=O)N(C)C)CC1 [Example 108, trans-4-({5-[2-(4-fluoro-2,6-dimethylphenoxy)-5-(2-hydroxypropan-2-yl)phenyl]-1-methyl-2-oxo-1,2-dihydropyridin-4-yl}oxy)-N,N-dimethylcyclohexane-1-carboxamide]
3680	COCCN1CC(=O)N([C@H]2CC[C@H](Oc3cc(=O)n(C)cc3-c3cc(C(C)(C)O)ccc3Oc3c(C)cc(F)cc3C)CC2)C1=O [Example 135, 3-[trans-4-({5-[2-(4-fluoro-2,6-dimethylphenoxy)-5-(2-hydroxypropan-2-yl)phenyl]-1-methyl-2-oxo-1,2-dihydropyridin-4-yl}oxy)cyclohexyl]-1-(2-methoxyethyl)imidazolidine-2,4-dione]
> 13000	Cc1cc(F)cc(C)c1Oc1ccc(C(C)(C)O)cc1-c1cn(C)c(=O)cc1O[C@H]1CC[C@H](N2C(=O)C3COCCN3C2=O)CC1 (relative stereo) [Example 126, 2-[trans-4-({5-[2-(4-fluoro-2,6-dimethylphenoxy)-5-(2-hydroxypropan-2-yl)phenyl]-1-methyl-2-oxo-1,2-dihydropyridin-4-yl}oxy)cyclohexyl]tetrahydro-1H-imidazo[5,1-c][1,4]oxazine-1,3(2H)-dione]
3570	Cc1cc(F)cc(C)c1Oc1ccc(C(C)(C)O)cc1-c1cn(C)c(=O)cc1O[C@H]1CC[C@H](NC(=O)C(F)(F)F)CC1 [Example 117, 2,2,2-trifluoro-N-[trans-4-({5-[2-(4-fluoro-2,6-dimethylphenoxy)-5-(2-hydroxypropan-2-yl)phenyl]-1-methyl-2-oxo-1,2-dihydropyridin-4-yl}oxy)cyclohexyl]acetamide]
2270	Cc1cc(F)cc(C)c1Oc1ccc(C(C)(C)O)cc1-c1cn(C)c(=O)cc1O[C@H]1CC[C@H](NC(=O)C2(C#N)CC2)CC1 [Example 85, 1-cyano-N-[trans-4-({5-[2-(4-fluoro-2,6-dimethylphenoxy)-5-(2-hydroxypropan-2-yl)phenyl]-1-methyl-2-oxo-1,2-dihydropyridin-4-yl}oxy)cyclohexyl]cyclopropane-1-carboxamide]
